# Results: patent US20110130425A1, “Use of H3 Histaminergic Agonists for the Treatment of Addiction to Drugs of Abuse” (priority 2009, published 2011)
# Columns and labels:
# alcohol relapse behavior = experiment: Alcohol Deprivation Effect (ADE) paradigm; type: in vivo, rat; details: L-histidine; rats
# Method: The effects of a H3 histaminergic ligand, such as L-histidine, are tested in our well-established model of relapse-like drinking behavior.
# Alcohol Deprivation Effect (ADE) paradigm: All rats are given continuous access to tap water and to 5%, 10% and 20% (v/v) ethanol solutions in their home cages. Spillage and evaporation is minimized by the use of self-made bottles. All drinking solutions are renewed weekly and the positions of the four bottles are changed to avoid location preferences. After eight weeks of continuous access, ethanol solutions are repeatedly withdrawn for 3-21 days (deprivation phases) every four weeks until the rats become alcohol-dependent (as measured by a sucrose and quinine tests). The effects of a H3 histaminergic ligand are then tested on the expression of the alcohol deprivation effect (=relapse behavior). A second ADE study is initiated 3 months later in order to study the persistence of treatment efficacy.
# Past pharmacological studies in home cage drinking models were hampered by the fact that measurements were performed at 24 hour intervals. Thus the exact temporal profile of drug treatment could not be assessed under home cage drinking conditions and sometimes pharmacological effects became masked by the use of measurements every 24 hours. This problem has now been solved in our lab by the use of a fully-automated drinkometer system. […]
# dopamine release = experiment: Nicotine stimulation of dopamine release in striatal miniprisms; type: cell-based, Sprague-Dawley rat; details: 0.5 mM L-histidine preincubation; 100 nM nicotine, 15 mM K+; rat striatal miniprisms; vs controls
# Method: One male Sprague-Dawley rat obtained from Charles-River weighing 200-250 g is used. The rat brain is rapidly removed and placed in ice-cold oxygen-saturated (O2/CO2:95%/5%) Krebs bicarbonate buffer (124 mM NaCl, 0.8 mM KCl, 1.25 mM NaH2PO4, 1.2 mM KH2PO4, 0.67 mM MgSO4, 2.6 mM CaCl2, 10 mM glucose and 27.5 mM NaHCO3, pH 7.4). The striata is dissected and cut using a Mcllwain™ Mechanical Tissue Copper (Stoelting Co., Wood Dale, Ill.) into miniprisms of 0.3 mm/side. The microprims are transferred to ice-cold Krebs buffer, gently centrifuged, and the buffer changed to remove damaged tissue and cellular debris.
# Brain miniprisms are distributed into 24 flat-bottom Eppendorf tubes and preincubated for 2 hours in 0.25 mL Krebs buffer at 37° C. using an Eppendorf Thermomixer® under a O2/CO2 atmosphere. Then the medium is replaced with fresh Krebs buffer at 37° C. with or without 0.5 mM L-histidine prepared in the same buffer. This concentration of L-histidine is similar to that reached in plasma of L-histidine-treated humans (Block et al., 1967). […]
# All samples are then cooled down on ice and quickly centrifuged at 1000×g for 1 minute to separate buffer from tissue. […] An automatic autosampler Merck-Hitachi L-7200 and an automated fraction collector Gilson FC203B automatically recover internal standard dopamine peaks when UV detected into scintillation vials. […]
compound,measurement,setting,value
N[C@@H](Cc1c[nH]cn1)C(=O)O [L-histidine],relapse into alcohol drinking after alcohol deprivation (alcohol deprivation effect),alcohol relapse behavior,decreases relapse
same,dopamine release caused by nicotine stimulation,dopamine release,less dopamine release
